According to patent US20240317764A1, “SALTS AND SOLID FORMS OF A COMPOUND HAVING APJ RECEPTOR ACTIVITY” (Annapurna Bio, Inc., priority 2022, published 2024):
Converted amounts (≈) assume the structure as drawn. “Also recorded” adds a separate entry of the source. Structures can show the parent of a compound that is named as a salt.

Experiments:
physchem = conditions: thermodynamic from solid
[1] = Hygroscopicity by DVS at 25° C. between 0% RH and 95% RH, XRPD after DVS; assay type: physicochemical; conditions: for Water uptake, comparison between forms (in words): DVS at 25° C., 0% RH to 95% RH; for Water uptake (25° C./80% RH): DVS; for Form change after DVS: XRPD after DVS test
Description: DVS was measured via a SMS (Surface Measurement Systems) DVS Intrinsic. The relative humidity at 25° C. were calibrated against deliquescence point of LiCl, Mg(NO3)2 and KCl.
In order to evaluate the hygroscopicity of Compound I free acid Form A and re-prepared salt forms, DVS isotherm plots were collected at 25° C. between 0% RH and 95% RH. XRPD characterization was performed for the samples after DVS test.

[2] = pH buffers
[3] = Dog pharmacokinetic study after oral administration, plasma by LC-MS/MS; assay type: in vivo, male Beagle dogs; conditions: for Cmax / AUC(0-t) / Tmax: male, Beagle, 30 mg/kg; for Cmax / AUC(0-t): mean; for Cmax: plasma Compound I; for AUC(0-t): t = 24 h; for Tmax: median value or range
Description: The objective of this study was to characterize the pharmacokinetics (PK) of Compound I in male Beagle dogs after oral (P0) administration. The P0 formulation was prepared in capsule or prepared in 0.50% or […] (methyl cellulose) in water at a concentration of 6 mg/mL for oral administration at 30 mg/kg.
LC-MS/MS for the PK studies was carried out using the following instruments/conditions.
Compound I Free acid Form A and Compound I choline salt Form A were formulated as an oral suspension at a target dose concentration of 6 mg/mL in 0.500 or 1% MC in water.
The dose was administered orally by gavage at a target dose volume of 5 mL/kg. Compound I choline salt Form A was also formulated as an oral capsule at a target dose concentration of 30 mg/kg. The formulation was prepared on the day of dosing and stored at room temperature prior to administration. The dose was administered orally by gavage to dogs. Following oral administration, blood samples were collected from […] at pre-dose, 0.083, 0.25, 0.5, 1, 2, 4, 8 and 24 h post dose.
The plasma concentration of Compound I was determined by liquid chromatography with mass spectrometric detection (LC-MS/MS).

[4] = Solid stability, 54 and 91 days (XRPD and HPLC purity); assay type: physicochemical; conditions: 25° C./60% RH or 40° C./75% RH
[5] = Approximate solubility of Compound I free acid Form A in 14 solvents at RT; assay type: physicochemical
Description: Approximate solubility of starting material (Compound I free acid Form A) was determined in 14 solvents at RT. Approximately 2 mg of sample was added into a 3-mL glass vial. Solvents in Table 1-3 were then added stepwise into the vials until the solids were dissolved visually or a total volume of 2 mL was reached. Solubility results summarized in Table 1-1 were used to guide the solvent selection in screening experiment design.

[6] = compared to Compound I choline salt Form A

With `CCOc1cccc(-c2nc3ncc(NS(C)(=O)=O)nc3n2-c2c(OC)cccc2OC)n1` [Compound I choline salt Form A, N-(1-(2,6-dimethoxyphenyl)-2-(6-ethoxypyridin-2-yl)-1H-imidazo[4,5-b]pyrazin-6-yl)methanesulfonamide choline salt Form A] as the molecule, how does the “Solubility in certain non-polar solvents (in words)” value (IPA, acetone, MEK, MIBK, ethyl acetate, isopropyl acetate, MTBE, THF, 2-MeTHF, CHCl3, n-heptane, toluene, DCM, 1,4-dioxane) read?
Its value is “less soluble”.

And the “Solubility in polar solvents (in words)” value (methanol, DMSO, and water)?
Its value is “good solubility”.

And the solubility (physchem; 1,4-Dioxane, 26 °C, organic solvent or mixture)?
Its solubility is under 2100 µg/mL.

And the solubility (physchem; 2-Butanol, 26 °C, organic solvent or mixture)?
Its solubility is under 1800 µg/mL.

What about the solubility (physchem; 2-MeTHF, 26 °C, organic solvent or mixture) of the same molecule?
The solubility was under 1800 µg/mL.

And the solubility (physchem; ACN, 26 °C, organic solvent or mixture)?
Its solubility is 7100 to 21400 µg/mL.

What about the solubility (physchem; ACN/IPAc (1:1), 26 °C, organic solvent or mixture) of the same molecule?
Its solubility is under 2100 µg/mL.

And the solubility (physchem; ACN/IPAc (9:1), 26 °C, organic solvent or mixture)?
The solubility was 2200 to 7300 µg/mL.

And the solubility (physchem; ACN/Toluene (1:1), 26 °C, organic solvent or mixture)?
The solubility was 2100 to 7000 µg/mL.

And the solubility (physchem; ACN/Toluene (9:1), 26 °C, organic solvent or mixture)?
The solubility was 6300 to 18800 µg/mL.

What about the solubility (physchem; Acetone/H2O (19:1), 26 °C, organic solvent or mixture) of the same molecule?
Its solubility is 7200 to 21600 µg/mL.

What about the solubility (physchem; CHCl3, 26 °C, organic solvent or mixture) of the same molecule?
The solubility was under 2100 µg/mL.

What about the solubility (physchem; CPME, 26 °C, organic solvent or mixture) of the same molecule?
The solubility was under 1800 µg/mL.

What about the solubility (physchem; DCM, 26 °C, organic solvent or mixture) of the same molecule?
Its solubility is under 2100 µg/mL.

And the solubility (physchem; DMF, 26 °C, organic solvent or mixture)?
The solubility was 20200 to 40400 µg/mL.

What about the solubility (physchem; DMSO, 26 °C, organic solvent or mixture) of the same molecule?
Its solubility is 18800 to 37600 µg/mL.

And the solubility (physchem; EtOAc, 26 °C, organic solvent or mixture)?
Its solubility is under 1700 µg/mL.

And the solubility (physchem; EtOH, 26 °C, organic solvent or mixture)?
Its solubility is 6800 to 20500 µg/mL.

What about the solubility (physchem; EtOH/H2O (19:1), 26 °C, organic solvent or mixture) of the same molecule?
The solubility was 6600 to 19900 µg/mL.

And the solubility (physchem; IPA/ACN (1:1), 26 °C, organic solvent or mixture)?
Its solubility is 7000 to 21000 µg/mL.

And the solubility (physchem; IPAc, 26 °C, organic solvent or mixture)?
The solubility was under 2000 µg/mL.

What about the solubility (physchem; MEK, 26 °C, organic solvent or mixture) of the same molecule?
Its solubility is under 2000 µg/mL.

What about the solubility (physchem; MIBK, 26 °C, organic solvent or mixture) of the same molecule?
The solubility was under 2300 µg/mL.

What about the solubility (physchem; MTBE, 26 °C, organic solvent or mixture) of the same molecule?
The solubility was under 2100 µg/mL.

And the solubility (physchem; MeOH/DCM (1:1), 26 °C, organic solvent or mixture)?
The solubility was over 39600 µg/mL.

What about the solubility (physchem; MeOH/DCM (1:9), 26 °C, organic solvent or mixture) of the same molecule?
Its solubility is over 40800 µg/mL.

And the solubility (physchem; MeOH/DCM (1:19), 26 °C, organic solvent or mixture)?
The solubility was over 38600 µg/mL.

What about the solubility (physchem; THF, 26 °C, organic solvent or mixture) of the same molecule?
The solubility was under 1800 µg/mL.

And the solubility (physchem; THF/H2O (19:1), 26 °C, organic solvent or mixture)?
The solubility was over 40400 µg/mL.

What about the solubility (physchem; acetone, 26 °C, organic solvent or mixture) of the same molecule?
Its solubility is under 2400 µg/mL.

What about the solubility (physchem; isopropanol (IPA), 26 °C, organic solvent or mixture) of the same molecule?
Its solubility is under 2200 µg/mL.

What about the solubility (physchem; methanol, 26 °C, organic solvent or mixture) of the same molecule?
The solubility was over 45200 µg/mL.

What about the solubility (physchem; n-heptane, 26 °C, organic solvent or mixture) of the same molecule?
The solubility was under 2100 µg/mL.

What about the solubility (physchem; toluene, 26 °C, organic solvent or mixture) of the same molecule?
Its solubility is under 2200 µg/mL.

What about the solubility (physchem; water, 26 °C) of the same molecule?
The solubility was over 43000 µg/mL.

What about the “Water uptake, comparison between forms (in words)” value (“Water uptake … (in words)” below) [1] of the same molecule?
Its value is “No significant difference”.

And the “Water uptake (25° C./80% RH)” value [1]?
Its value is 3.85%.

What about the “Form change after DVS” value [1] of the same molecule?
Its value is “No”.

What about the “pH solubility compared with free acid Form A” value [2] of the same molecule?
The value was “higher solubility than free acid Form A”.

And the Cmax ([3]; plasma, po, capsule)?
Its Cmax is 11900 ng/mL.

And the AUC(0-t) ([3]; plasma, po, capsule)?
The AUC(0-t) was 145 µg·h/mL.

What about the Cmax ([3]; plasma, po, suspension) of the same molecule?
The Cmax was 73800 ng/mL.

What about the AUC(0-t) ([3]; plasma, po, suspension) of the same molecule?
The AUC(0-t) was 1120 µg·h/mL.

What about the Tmax ([3]; plasma, po, suspension) of the same molecule?
The Tmax was 2 to 4 h.

What about the “Pharmacokinetic profile (in words)” value ([3]; suspension and capsule) of the same molecule?
The value was “excellent pharmacokinetic profiles”.

And the “Mean AUClast and Cmax compared with free acid Form A suspension” value ([3]; suspension or capsule)?
Its value is “greater than that of Compound I free acid Form A”.

And the “Solid stability: form change (XRPD) and HPLC purity” value (“Solid stability: form change” below) [4]?
The value was “no form change or obvious HPLC purity decrease; also recorded: physically/chemically stable”.

What about the “Solid stability: form change” value ([4]; listed as choline salt Form A) of the same molecule?
Its value is “no form change or obvious HPLC purity decrease; also recorded: physically/chemically stable”.

For `CCOc1cccc(-c2nc3ncc([N-]S(C)(=O)=O)nc3n2-c2c(OC)cccc2OC)n1.[K+]` [Compound I potassium salt Form A, N-(1-(2,6-dimethoxyphenyl)-2-(6-ethoxypyridin-2-yl)-1H-imidazo[4,5-b]pyrazin-6-yl)methanesulfonamide potassium salt Form A], which “Water uptake … (in words)” value [1] is on record?
The value was “No significant difference”.

And the “Water uptake (25° C./80% RH)” value [1]?
The value was 3.71%.

What about the “Form change after DVS” value [1] of the same molecule?
The value was “No”.

With `CCOc1cccc(-c2nc3ncc(NS(C)(=O)=O)nc3n2-c2c(OC)cccc2OC)n1` [Compound I free acid Form A, N-(1-(2,6-dimethoxyphenyl)-2-(6-ethoxypyridin-2-yl)-1H-imidazo[4,5-b]pyrazin-6-yl)methanesulfonamide] as the molecule, how does the “Water uptake … (in words)” value [1] read?
The value was “lowest water uptake”.

What about the “Water uptake … (in words)” value ([1]; listed as free acid Form A) of the same molecule?
Its value is “lowest water uptake”.

What about the “Water uptake (25° C./80% RH)” value [1] of the same molecule?
Its value is 0.03%.

What about the “Form change after DVS” value [1] of the same molecule?
The value was “No”.

What about the solubility ([5]; organic solvent or mixture, thermodynamic from solid, 1,4-dioxane) of the same molecule?
Its solubility is 2000 to 5000 µg/mL (≈ 4.25 to 10.6 mM).

And the solubility ([5]; organic solvent or mixture, thermodynamic from solid, 2-MeTHF)?
Its solubility is under 1000 µg/mL.

What about the solubility ([5]; organic solvent or mixture, thermodynamic from solid, ACN) of the same molecule?
Its solubility is 2000 to 5000 µg/mL (≈ 4.25 to 10.6 mM).

And the solubility ([5]; organic solvent or mixture, thermodynamic from solid, DCM)?
Its solubility is 5300 to 10500 µg/mL (≈ 11.3 to 22.3 mM).

What about the solubility ([5]; organic solvent or mixture, thermodynamic from solid, EtOAc) of the same molecule?
Its solubility is under 1000 µg/mL.

And the solubility ([5]; organic solvent or mixture, thermodynamic from solid, EtOH)?
Its solubility is under 1100 µg/mL.

And the solubility ([5]; organic solvent or mixture, thermodynamic from solid, IPA)?
Its solubility is under 900 µg/mL.

And the solubility ([5]; organic solvent or mixture, thermodynamic from solid, MTBE)?
Its solubility is under 900 µg/mL.

What about the solubility ([5]; organic solvent or mixture, thermodynamic from solid, MeOH) of the same molecule?
Its solubility is 1000 to 2100 µg/mL (≈ 2.13 to 4.46 mM).

And the solubility ([5]; organic solvent or mixture, thermodynamic from solid, THF)?
Its solubility is 9000 to 18000 µg/mL (≈ 19.1 to 38.3 mM).

And the solubility ([5]; organic solvent or mixture, thermodynamic from solid, acetone)?
Its solubility is 2100 to 5200 µg/mL (≈ 4.46 to 11.1 mM).

And the solubility ([5]; organic solvent or mixture, thermodynamic from solid, n-heptane)?
The solubility was under 1300 µg/mL.

And the solubility ([5]; organic solvent or mixture, thermodynamic from solid, toluene)?
Its solubility is under 800 µg/mL.

And the solubility ([5]; water, thermodynamic from solid, H2O)?
Its solubility is under 1200 µg/mL.

And the AUC(0-t) ([3]; plasma, suspension)?
The AUC(0-t) was 13.8 µg·h/mL.

What about the Tmax ([3]; plasma, suspension) of the same molecule?
Its Tmax is 4 h.

What about the Cmax ([3]; suspension) of the same molecule?
Its Cmax is 983 ng/mL.

And the “Solid stability: form change” value [4]?
The value was “no form change or obvious HPLC purity decrease”.

For `CCOc1cccc(-c2nc3ncc([N-]S(C)(=O)=O)nc3n2-c2c(OC)cccc2OC)n1.[Na+]` [Compound I sodium salt Form A, N-(1-(2,6-dimethoxyphenyl)-2-(6-ethoxypyridin-2-yl)-1H-imidazo[4,5-b]pyrazin-6-yl)methanesulfonamide sodium salt Form A], which “Water uptake (25° C./80% RH)” value [1] is on record?
Its value is 1.13%.

And the “Form change after DVS” value ([1]; listed as Compound I Na salt Form A)?
Its value is “converted to a new form after DVS test; also recorded: form change was observed after DVS”.

And the “Form change after DVS” value ([1]; listed as Na salt Form A)?
Its value is “Yes*”.

And the “Hygroscopicity (in words)” value [1, 6]?
The value was “exhibited hygroscopicity”.

What about the “Stability after exposure to high humidity (in words)” value [1, 6] of the same molecule?
Its value is “less stable after exposed to high humidity”.
